Experimental data reported in PMC10288853 (Frontiers in Oncology, 2023).
Several values for one entry are separate records, joined by “and”; a condition that tells them apart may be missing. Equal entries are not always repeated.

Legend:
[1] = system: metastatic uveal melanoma; design: method as in PMID 34551229, PMID 35254876; conditions: previously untreated HLA-A*0201 positive patients, versus best alternative care; ref [6], [7]; cited from earlier work
clinical = conditions: human, in vivo, median AUC0-8hr of sotrastaurin
Method: (§1) Samples were collected on days 1, 8, 15 and 22 of cycle 1, and pre-dose on day 1 of cycles 2 through 6. Plasma concentrations were measured using a validated liquid chromatography-tandem mass spectrometry assay. The lower limit of quantification (LLOQ) was 3.0 ng/mL for sotrastaurin and its metabolite AEE800. […] Concentrations below the LLOQ were treated as zero in summary statistics.
(§2) The PK analyses used the actual dose received for each particular PK profile. Parameters relating to the PK profile (e.g., AUC and Cmax) were summarized for data collected on C1D1 and C1D15.

[2] = system: patients with metastatic uveal melanoma; assay: Safety and tolerability: adverse events in phase Ib patients; conditions: given in the combination, all patients
Method: Treated patients were assessed for toxicity by physical examinations on a weekly basis during cycle 1 and on day 1 of each subsequent cycle, with laboratory assessments and ECGs performed on cycle 1 day 1, cycle 1 day 15, and on day 1 of each subsequent cycle. Patients underwent imaging studies for response evaluation during screening and after every 2 cycles of treatment.

[3] = Plasma pharmacokinetics by LC-MS/MS; conditions: for AUC(0-t) / Cmax / Tmax: human, plasma, oral; for Cmax: Median Cmax [Min; for Tmax: Median Tmax [Min
Method: as §1, §2

[4] = human, in vivo
Method: as §1, §2

[5] = b.i.d. dosing in combination with sotrastaurin
[6] = Max], plasma binimetinib, 2nd section, Cycle 1 Day 1 (C1D1), Dose Level 1: AEB071 150 mg bid and MEK162 45 mg bid
[7] = Max], plasma binimetinib, 2nd section, Cycle 1 Day 1 (C1D1), Dose Level 3: AEB071 300 mg bid and MEK162 30 mg bid
[8] = Max], plasma binimetinib, 2nd section, Cycle 1 Day 1 (C1D1), Dose Level 4: AEB071 300 mg bid and MEK162 45 mg bid
[9] = Max], plasma binimetinib, 2nd section, Cycle 1 Day 1 (C1D1), Dose Level 5: AEB071 350 mg bid and MEK162 30 mg bid
[10] = Max], plasma binimetinib, 2nd section, Cycle 1 Day 1 (C1D1), Dose Level 6: AEB071 400 mg bid and MEK162 30 mg bid
[11] = Max], plasma binimetinib, Cycle 1 Day 1 (C1D1), Dose Level 1: AEB071 150 mg bid and MEK162 45 mg bid
[12] = Max], plasma binimetinib, Cycle 1 Day 1 (C1D1), Dose Level 2: AEB071 200 mg bid and MEK162 45 mg bid
[13] = Max], plasma binimetinib, Cycle 1 Day 1 (C1D1), Dose Level 3: AEB071 300 mg bid and MEK162 30 mg bid
[14] = Max], plasma binimetinib, Cycle 1 Day 1 (C1D1), Dose Level 4: AEB071 300 mg bid and MEK162 45 mg bid
[15] = Max], plasma binimetinib, Cycle 1 Day 1 (C1D1), Dose Level 5: AEB071 350 mg bid and MEK162 30 mg bid
[16] = Max], plasma binimetinib, Cycle 1 Day 1 (C1D1), Dose Level 6: AEB071 400 mg bid and MEK162 30 mg bid

tebentafusp: agent improving overall survival in previously untreated HLA-A*0201 positive metastatic uveal melanoma patients
hazard ratio for death [1]: 0.51 | reduction in the risk of death [1]: 49%

CN1CCN(c2nc(C3=C(c4c[nH]c5ccccc45)C(=O)NC3=O)c3ccccc3n2)CC1 [sotrastaurin]
AUC(0-t) (clinical; 150 mg): 6070 ng·h/mL | AUC(0-t) (clinical; 400 mg): 21600 ng·h/mL | Dose reductions applied [2]: 76.3% | accumulation of sotrastaurin following b.i.d. dosing ([3]; exposure on day 15 compared with day 1): no observed accumulation | median RACC, range at different doses of sotrastaurin [4]: 0.72-1.15

Cn1cnc2c(F)c(Nc3ccc(Br)cc3F)c(C(=O)NOCCO)cc21 [binimetinib]
Dose reductions applied [2]: 65.8% | median RACC of binimetinib, other three dose levels lower than or close to 1 [3, 5]: 0.76 and 0.78 and 1.08 | median RACC of binimetinib, three dose levels much higher than 1 [3, 5]: 1.34 and 1.42 and 1.54 | AUC(0-t) ([3]; 30 mg, median AUC0-8hr range of binimetinib, cycle 1 day 15, binimetinib 30 mg b.i.d. with varying doses of sotrastaurin): 1210 to 1450 ng·h/mL | AUC(0-t) ([3]; 45 mg, median AUC0-8hr range of binimetinib, cycle 1 day 15, binimetinib 45 mg b.i.d. with varying doses of sotrastaurin): 1480 to 2140 ng·h/mL | AUC(0-t) ([3]; Median AUC0–8hr [Min, Max], plasma binimetinib, 2nd section, Cycle 1 Day 1 (C1D1), Dose Level 1: AEB071 150 mg bid and MEK162 45 mg bid): 2000 ng·h/mL | AUC(0-t) ([3]; Median AUC0–8hr [Min, Max], plasma binimetinib, 2nd section, Cycle 1 Day 1 (C1D1), Dose Level 3: AEB071 300 mg bid and MEK162 30 mg bid): 1210 ng·h/mL | AUC(0-t) ([3]; Median AUC0–8hr [Min, Max], plasma binimetinib, 2nd section, Cycle 1 Day 1 (C1D1), Dose Level 4: AEB071 300 mg bid and MEK162 45 mg bid): 1480 ng·h/mL | AUC(0-t) ([3]; Median AUC0–8hr [Min, Max], plasma binimetinib, 2nd section, Cycle 1 Day 1 (C1D1), Dose Level 5: AEB071 350 mg bid and MEK162 30 mg bid): 1250 ng·h/mL | AUC(0-t) ([3]; Median AUC0–8hr [Min, Max], plasma binimetinib, 2nd section, Cycle 1 Day 1 (C1D1), Dose Level 6: AEB071 400 mg bid and MEK162 30 mg bid): 1450 ng·h/mL | AUC(0-t) ([3]; Median AUC0–8hr [Min, Max], plasma binimetinib, Cycle 1 Day 1 (C1D1), Dose Level 1: AEB071 150 mg bid and MEK162 45 mg bid): 1540 ng·h/mL | AUC(0-t) ([3]; Median AUC0–8hr [Min, Max], plasma binimetinib, Cycle 1 Day 1 (C1D1), Dose Level 2: AEB071 200 mg bid and MEK162 45 mg bid): 1550 ng·h/mL | AUC(0-t) ([3]; Median AUC0–8hr [Min, Max], plasma binimetinib, Cycle 1 Day 1 (C1D1), Dose Level 3: AEB071 300 mg bid and MEK162 30 mg bid): 1130 ng·h/mL | AUC(0-t) ([3]; Median AUC0–8hr [Min, Max], plasma binimetinib, Cycle 1 Day 1 (C1D1), Dose Level 4: AEB071 300 mg bid and MEK162 45 mg bid): 1610 ng·h/mL | AUC(0-t) ([3]; Median AUC0–8hr [Min, Max], plasma binimetinib, Cycle 1 Day 1 (C1D1), Dose Level 5: AEB071 350 mg bid and MEK162 30 mg bid): 1260 ng·h/mL | AUC(0-t) ([3]; Median AUC0–8hr [Min, Max], plasma binimetinib, Cycle 1 Day 1 (C1D1), Dose Level 6: AEB071 400 mg bid and MEK162 30 mg bid): 985 ng·h/mL | Cmax [3, 6]: 493 ng/mL | Cmax ([3]; Max], plasma binimetinib, 2nd section, Cycle 1 Day 1 (C1D1), Dose Level 2: AEB071 200 mg bid and MEK162 45 mg bid): 410 ng/mL | Cmax [3, 7]: 246 ng/mL | Cmax [3, 8]: 391 ng/mL | Cmax [3, 9]: 280 ng/mL | Cmax [3, 10]: 346 ng/mL | Cmax [3, 11]: 366 ng/mL | Cmax [3, 12]: 450 ng/mL | Cmax [3, 13]: 213 ng/mL | Cmax [3, 14]: 370 ng/mL | Cmax [3, 15]: 259 ng/mL | Cmax [3, 16]: 279 ng/mL | Tmax [3, 6]: 2 h | Tmax [3, 7]: 3 h | Tmax [3, 8]: 2.9 h | Tmax [3, 9]: 1.9 h | Tmax [3, 10]: 1.5 h | Tmax [3, 11]: 1.1 h | Tmax [3, 12]: 1.1 h | Tmax [3, 13]: 2 h | Tmax [3, 14]: 4 h | Tmax [3, 15]: 2 h | Tmax [3, 16]: 1.1 h | Median AUC0–8hr [Min; Max] ([3]; plasma binimetinib, 2nd section, Cycle 1 Day 1 (C1D1), Dose Level 2: AEB071 200 mg bid and MEK162 45 mg bid): 2137.7 [1121.6; 2772.3] hr*ng/ml
